Experimental data as given in patent publication US20220339143A1, “TAK-925 FOR USE IN TREATING NARCOLEPSY” (Takeda Pharmaceutical Company Limited, priority 2019, published 2022).
“Also recorded” adds a separate entry of the source. Like-named read-outs stand apart in the source and are kept apart here.

Assay: Single dose PK in healthy subjects (Cohorts 1, 2, S1 and S2), plasma
Format: in vivo, human
Experimental: This study investigates (i) the safety and tolerability of Compound A (methyl (2R,3S)-3-((methylsulfonyl)amino)-2-(((cis-4-phenylcyclohexyl)oxy)methyl)piperidine-1-carboxylate) when a single dose given as a 9 hour continuous IV infusion is administered to healthy adults, healthy elderly subjects and patients with narcolepsy type 1 (NT1); (ii) the pharmacokinetics of Compound A when a single dose given as a 9 hour continuous IV infusion is administered to healthy adults, healthy elderly subjects and patients with narcolepsy type 1; and (iii) the pharmacodynamics (PD) effects of Compound A, primarily by evaluation of the sleep latency on MWT when a single dose given as a 9 hour continuous IV infusion is administered to patients with narcolepsy type 1.
Pharmacokinetics: Concentrations of Compound A in plasma, and CSF, and pharmacokinetics parameters.
On average, the time to reach the plateau appeared to be approximately 3 to 4 hours after the start of infusion. […] After switching off the IV infusion, Compound A plasma concentrations declined rapidly and in a biphasic manner with a mean terminal disposition phase t1/2z ranging approximately from 3.4 to 5.1 hours across all doses. […] Table 5 provides a summary of plasma concentrations of Compound A after a single IV infusion in healthy subjects. Table 6 provides a summary of pharmacokinetic parameters of Compound A after a single IV infusion in healthy subjects.

[1] = 56 mg, 2 hr After End of Infusion
[2] = 112 mg single IV infusion, healthy subjects
[3] = 112 mg, 0.17 hr After End of Infusion
[4] = 134.4 mg single IV infusion, healthy subjects
[5] = 134.4 mg, 0.17 hr After End of Infusion
[6] = 180 mg single IV infusion, healthy subjects
[7] = 240 mg single IV infusion, healthy subjects
[8] = human, plasma, intravenous, 7 mg, read-out: Plasma concentration, Mean
[9] = human, plasma, intravenous, 7 mg, read-out: Plasma concentration, Median
[10] = human, plasma, intravenous, 7 mg, read-out: Plasma concentration, Minimum
[11] = human, plasma, intravenous, 7 mg, read-out: Plasma concentration, Q1

SMILES: COC(=O)N1CCC[C@H](NS(C)(=O)=O)[C@@H]1CO[C@H]1CC[C@@H](c2ccccc2)CC1 [Compound A, methyl (2R,3S)-3-((methylsulfonyl)amino)-2-(((cis-4-phenylcyclohexyl)oxy)methyl)piperidine-1-carboxylate]
- Plasma concentration, Mean [1]: 21.70 ng/mL
- Plasma concentration, Minimum [1]: 15.4 ng/mL
- Plasma concentration, Q1 [1]: 15.60 ng/mL
- AUCinf D Mean [2]: 18.87 ng·h/mL/mg
- AUCinf D Median [2]: 19.25 ng·h/mL/mg
- Cmax D Mean [2]: 2.130 ng/mL/mg
- Cmax D Median [2]: 2.230 ng/mL/mg
- t½z Mean [2]: 3.788 h
- t½z Median [2]: 3.370 h
- Plasma concentration, Maximum [3]: 138 ng/mL
- Plasma concentration, Mean [3]: 126.2 ng/mL
- Plasma concentration, Median [3]: 133.0 ng/mL
- Plasma concentration, Minimum [3]: 106 ng/mL
- Plasma concentration, Q1 [3]: 110.0 ng/mL
- Plasma concentration, Q3 [3]: 137.0 ng/mL
- Plasma concentration, Maximum (112 mg, Predose): 0.00 ng/mL
- Plasma concentration, Median (112 mg, Predose): 0.000 ng/mL
- Plasma concentration, Minimum (112 mg, Predose): 0.00 ng/mL
- Plasma concentration, Q1 (112 mg, Predose): 0.000 ng/mL
- Plasma concentration, Q3 (112 mg, Predose): 0.000 ng/mL
- AUCinf D Mean [4]: 20.23 ng·h/mL/mg
- AUCinf D Median [4]: 19.95 ng·h/mL/mg
- Cmax D Mean [4]: 2.293 ng/mL/mg
- Cmax D Median [4]: 2.340 ng/mL/mg
- t½z Mean [4]: 3.943 h
- t½z Median [4]: 3.760 h
- Plasma concentration, Maximum [5]: 255 ng/mL
- Plasma concentration, Mean [5]: 181.7 ng/mL
- Plasma concentration, Median [5]: 167.5 ng/mL
- Plasma concentration, Minimum [5]: 145 ng/mL
- Plasma concentration, Q1 [5]: 148.0 ng/mL
- Plasma concentration, Q3 [5]: 207.0 ng/mL
- Plasma concentration, Maximum (134.4 mg, Predose): 0.00 ng/mL
- Plasma concentration, Mean (134.4 mg, Predose): 0.000 ng/mL
- Plasma concentration, Median (134.4 mg, Predose): 0.000 ng/mL
- Plasma concentration, Minimum (134.4 mg, Predose): 0.00 ng/mL
- Plasma concentration, Q1 (134.4 mg, Predose): 0.000 ng/mL
- Plasma concentration, Q3 (134.4 mg, Predose): 0.000 ng/mL
- AUCinf D Mean [6]: 16.73 ng·h/mL/mg
- AUCinf D Median [6]: 16.90 ng·h/mL/mg
- Cmax D Mean [6]: 1.918 ng/mL/mg
- Cmax D Median [6]: 1.990 ng/mL/mg
- t½z Mean [6]: 3.363 h
- t½z Median [6]: 3.225 h
- AUCinf D Mean [7]: 19.28 ng·h/mL/mg
- AUCinf D Median [7]: 18.45 ng·h/mL/mg
- Cmax D Mean [7]: 2.133 ng/mL/mg
- Cmax D Median [7]: 2.010 ng/mL/mg
- Vss Median [7]: 99.25 L
- t½z Mean [7]: 4.033 h
- t½z Median [7]: 4.230 h
- dose proportionality of mean plasma systemic exposure (doses of 7 to 240 mg, healthy adults): increased approximately dose proportionally; also recorded: exhibits linear pharmacokinetics
- concentration at 0.33 h after end of infusion [8]: 7.34 ng/mL
- concentration at 0.33 h after end of infusion [9]: 7.16 ng/mL
- concentration at 0.33 h after end of infusion [10]: 6.28 ng/mL
- concentration at 0.33 h after end of infusion [11]: 7.12 ng/mL
- concentration at 0.33 h after end of infusion (human, plasma, intravenous, 7 mg, read-out: Plasma concentration, Q3): 7.26 ng/mL
- concentration at 0.5 h after end of infusion [8]: 6.73 ng/mL
- concentration at 0.5 h after end of infusion [9]: 6.46 ng/mL
- concentration at 0.5 h after end of infusion [10]: 6.1 ng/mL
- concentration at 0.5 h after end of infusion [11]: 6.26 ng/mL
- concentration at 0.5 h (human, plasma, intravenous, 7 mg, 0.5 hr, read-out: Plasma concentration, Maximum): 10.5 ng/mL
- concentration at 0.5 h (human, plasma, intravenous, 7 mg, 0.5 hr, read-out: Plasma concentration, Mean): 9.15 ng/mL
- concentration at 0.5 h (human, plasma, intravenous, 7 mg, 0.5 hr, read-out: Plasma concentration, Median): 9.54 ng/mL
- concentration at 0.5 h (human, plasma, intravenous, 7 mg, 0.5 hr, read-out: Plasma concentration, Minimum): 6.99 ng/mL
- concentration at 0.5 hr (human, plasma, intravenous, 7 mg, 0.5 hr, read-out: Plasma concentration, Q1): 7.83 ng/mL
- concentration at 0.5 h (human, plasma, intravenous, 7 mg, 0.5 hr, read-out: Plasma concentration, Q3): 10.5 ng/mL
- concentration at 0.75 h after end of infusion [8]: 5.55 ng/mL
- concentration at 0.75 h after end of infusion [9]: 5.38 ng/mL
- concentration at 0.75 h after end of infusion [10]: 5.27 ng/mL
- concentration at 0.75 h after end of infusion [11]: 5.35 ng/mL
- concentration at 1 h after end of infusion [8]: 4.91 ng/mL
- concentration at 1 h after end of infusion [9]: 4.83 ng/mL
- concentration at 1 h after end of infusion [10]: 4.34 ng/mL
- concentration at 1 h after end of infusion [11]: 4.82 ng/mL
- concentration at 1 h (human, plasma, intravenous, 7 mg, 1 hr, read-out: Plasma concentration, Maximum): 15.1 ng/mL
- concentration at 1 h (human, plasma, intravenous, 7 mg, 1 hr, read-out: Plasma concentration, Mean): 11.7 ng/mL
- concentration at 1 h (human, plasma, intravenous, 7 mg, 1 hr, read-out: Plasma concentration, Median): 11.9 ng/mL
- concentration at 1 h (human, plasma, intravenous, 7 mg, 1 hr, read-out: Plasma concentration, Minimum): 8.68 ng/mL
- concentration at 1 hr (human, plasma, intravenous, 7 mg, 1 hr, read-out: Plasma concentration, Q1): 9.45 ng/mL
- concentration at 1 h (human, plasma, intravenous, 7 mg, 1 hr, read-out: Plasma concentration, Q3): 13.2 ng/mL
- concentration at 1.5 h after end of infusion [8]: 4.25 ng/mL
- concentration at 1.5 h after end of infusion [9]: 4.5 ng/mL
- concentration at 1.5 h after end of infusion [10]: 3.27 ng/mL
- concentration at 1.5 h after end of infusion [11]: 4.15 ng/mL
- concentration at 1.5 h (human, plasma, intravenous, 7 mg, 1.5 hr, read-out: Plasma concentration, Maximum): 17.6 ng/mL
- concentration at 1.5 h (human, plasma, intravenous, 7 mg, 1.5 hr, read-out: Plasma concentration, Mean): 13.1 ng/mL
- concentration at 1.5 h (human, plasma, intravenous, 7 mg, 1.5 hr, read-out: Plasma concentration, Median): 13 ng/mL
- concentration at 1.5 h (human, plasma, intravenous, 7 mg, 1.5 hr, read-out: Plasma concentration, Minimum): 8.96 ng/mL
- concentration at 1.5 hr (human, plasma, intravenous, 7 mg, 1.5 hr, read-out: Plasma concentration, Q1): 12 ng/mL
- concentration at 1.5 h (human, plasma, intravenous, 7 mg, 1.5 hr, read-out: Plasma concentration, Q3): 14 ng/mL
- concentration at 2 h (human, plasma, intravenous, 7 mg, 2 hr, read-out: Plasma concentration, Maximum): 18.5 ng/mL
- concentration at 2 h (human, plasma, intravenous, 7 mg, 2 hr, read-out: Plasma concentration, Mean): 14.8 ng/mL
- concentration at 2 h (human, plasma, intravenous, 7 mg, 2 hr, read-out: Plasma concentration, Median): 14.9 ng/mL
- concentration at 2 h (human, plasma, intravenous, 7 mg, 2 hr, read-out: Plasma concentration, Minimum): 10.9 ng/mL
- concentration at 2 hr (human, plasma, intravenous, 7 mg, 2 hr, read-out: Plasma concentration, Q1): 12.8 ng/mL
- concentration at 2 h (human, plasma, intravenous, 7 mg, 2 hr, read-out: Plasma concentration, Q3): 16.5 ng/mL
- concentration at 3 h (human, plasma, intravenous, 7 mg, read-out: Plasma concentration, Maximum): 20.2 ng/mL
- concentration at 3 h [8]: 16.5 ng/mL
- concentration at 3 h [9]: 15.8 ng/mL
- concentration at 3 h [10]: 13.2 ng/mL
